# Reference: patent publication EP0888293B1, “N-ACYLAMINOALKYLHYDRAZINECARBOXIMIDAMIDES” (ALTEON Inc., priority 1995, dated 1997)
# Where a name gives a salt, the structure may show the parent alone.
# Key:
# [1] = biological target: T1, inducible nitric oxide synthase (Mus musculus, UniProt P29477); assay: Nitric oxide production by lipopolysaccharide-induced macrophage cells; assay type: cell-based; settings: RAW 264.7 macrophage cells induced with lipopolysaccharide; test concentration not given
# T1 construct: Nitric oxide (NO) production by macrophage cells (RAW 264.7) is induced with lipopolysaccharride; endogenous in cells; host or cells: RAW 264.7 macrophage cells, LPS-induced
# [2] = test system: N-acetyl glycyl-lysine methyl ester; assay: Inhibition of cross-linking of N-acetyl glycyl-lysine methyl ester in the presence of ribose (fluorescence); assay type: biochemical; settings: N-acetylglycyllysine methyl ester + ribose, pH 7.4, 37°C, 16-24 hours, fluorescence 350/400 nm
# Description: The following method was used to evaluate the ability of the compounds of the present invention to inhibit the cross-linking of N-acetyl glycyl-lysine methyl ester in the presence of ribose.
# • 0.5 M sodium phosphate buffer pH 7.4 • N-acetylglycyllysine methyl ester in 0.5M sodium phosphate buffer, pH 7.4 • Ribose: 800 mM • Test compounds dissolved in the above buffer and the pH is adjusted to 7.4, if necessary
# Reaction mixtures are prepared as follows:
# and incubated at 37°C for 16-24 hours. At the end of the incubation period, the fluorescence is read using an excitation wavelength of 350 nm and emission wavelength of 400 nm.
# [3] = test system: fixed protein (gelatin, i.e., collagen) surface; assay: Surface browning experiment on gelatin/paper disks; settings: 100 mM glucose-6-phosphate, one week at 50°C, pH 7.4; Peridex at final concentration of 0.04% chlorhexidine, no compound of Formula I
# Description: To further study the ability of inhibitors of nonenzymatic browning to prevent the discoloration of protein on a surface, such as that which occurs on the tooth surface, the following surface browning experiment is performed. As a substitute for a pellicle-covered tooth surface, unexposed and developed photographic paper is used to provide a fixed protein (gelatin, i.e., collagen) surface on a paper backing. Five millimeter circles are punched and immersed for one week at 50°C in a solution of 100 mM glucose-6-phosphate in a 0.5 M phosphate buffer, pH 7.4, containing 3 mM sodium azide. Glucose-6-phosphate is a sugar capable of participating in nonenzymatic browning at a more rapid rate than glucose. In addition to the glucose-6-phosphate, chlorhexidine and/or a compound of Formula I are included. After incubation, the gelatin/paper disks are rinsed with water, observed for brown color, and photographed.
Structure (SMILES),% inhibition of NO release [1],IC50 ([2]; hydrobromide),IC50 ([2]; hydrochloride),IC50 [2],browning of gelatin/paper disks [3]
"N=C(N)NN [Aminoguanidine hydrochloride, reference compound]",44%,,,10 mM,
CC(=O)NCCCNC(=N)NN [N-(3-acetamidopropyl)hydrazinecarboximidamide],33%,,,> 10 mM,
[H]/N=C(\N/C(=N/[H])NCCCCCCNC(=N)NC(=N)Nc1ccc(Cl)cc1)Nc1ccc(Cl)cc1 [chlorhexidine],,,,,significant browning

# The next lines start with results.
% inhibition of NO release [1],IC50 ([2]; hydrobromide),IC50 ([2]; hydrochloride),Structure (SMILES),IC50 [2],browning of gelatin/paper disks [3]
20%,11.5 mM,,Br.CC(=O)NCCNC(=N)NN [N-(2-acetamidoethyl)hydrazine carboximidamide hydrobromide],,
15%,,10.6 mM,CC(=O)NCCNC(=N)NN.Cl [N-(2-acetamidoethyl)hydrazine carboximidamide hydrochloride],,
